The results in this text go back to ChEMBL document CHEMBL2046308, “Thiol-reactive compounds from garlic inhibit the epithelial sodium channel (ENaC)” (Bioorg Med Chem, 2012).

Calls of active or inactive are those of the source. The calls are words filed in the database; no cut-off is given here.

Usually inhibition stands for the share of the control response that was lost under treatment.

For one experiment, the target named is T1, Amiloride-sensitive sodium channel, ENaC (Homo sapiens) (UniProt P37088+P51168+P51170). In words: Inhibition of human ENaC alpha-beta-gamma expressed in Xenopus laevis oocytes assessed as effect on transmembrane currents at 1 mM by two-electrode voltage-clamp technique. In kind it is cell-based. Conditions: Oocyte.
As to `C=CCSSCC=C`, the inhibition entry was “inactive”. The same measure, in the same setting: under `C=CCSC[C@H](N)C(=O)O` stands “inactive”; under `C=CC[S@+]([O-])C[C@H](N)C(=O)O`, “inactive”. The same measure, in the same setting: with `C=CCSSSCC=C` the entry was “inactive”; with `C=CCSCC=C`, “inactive”.

Another experiment concerns the target T1, Amiloride-sensitive sodium channel, ENaC (Homo sapiens). In words: Inhibition of human ENaC alpha-beta-gamma expressed in Xenopus laevis oocytes assessed as effect on transmembrane currents at 100 uM by two-electrode voltage-clamp technique. Conditions: Oocyte. In kind it is cell-based. (In general: Two-electrode voltage clamp is typically applied to oocytes expressing channels or transporters.)
`C=CCS[S+]([O-])CC=C` (stereo unspecified): the inhibition is 77%.
